Experimental data published in the supplement of paper PMC8617591.

What was measured:
[1] = tested on: Mycobacterium tuberculosis Erdman (autoluminescent); experiment: GRinf, maximum normalised growth rate inhibition (unitless (-1 to 1)); higher = less effect (negative = killing)
Method: (§1)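 DiaMOND equipotent two-drug combination dose responses against autoluminescent M. tuberculosis Erdman in 8 in vitro models. Read-out is OD600, or luminescence for the intracellular and dormancy models, normalised to untreated wells. Hill-fit Einf, AUC25 and GRinf are potency metrics; FIC50 and FIC90 are Loewe-additivity fractional inhibitory concentrations, given as log2 (negative = synergy). Replicates are averaged.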

[2] = tested on: Mycobacterium tuberculosis Erdman (autoluminescent); experiment: Einf, fitted maximum growth inhibition of combination (fraction); higher = stronger maximal inhibition
Method: as §1

[3] = tested on: Mycobacterium tuberculosis Erdman (autoluminescent); experiment: FIC90 (Loewe) at 90% inhibition (log2); higher = more antagonistic
Method: as §1

[4] = tested on: Mycobacterium tuberculosis Erdman (autoluminescent); experiment: AUC25, normalised area under dose response up to IC25 (fraction (0-1)); higher = more potent at low dose
Method: as §1

[5] = tested on: Mycobacterium tuberculosis Erdman (autoluminescent); experiment: FIC50 (Loewe) at 50% inhibition (log2); higher = more antagonistic
Method: as §1

COc1nc2ccc(Br)cc2cc1[C@@H](c1ccccc1)[C@@](O)(CCN(C)C)c1cccc2ccccc12 [bedaquiline] + CO[C@H]1/C=C/O[C@@]2(C)Oc3c(C)c(O)c4c(O)c(c(/C=N/N5CCN(C6CCCC6)CC5)c(O)c4c3C2=O)NC(=O)/C(C)=C\C=C\[C@H](C)[C@H](O)[C@@H](C)[C@@H](O)[C@@H](C)[C@H](OC(C)=O)[C@@H]1C [rifapentine]
Settings | AUC25, [4] | Einf, [2] | FIC50, [5] | FIC90, [3] | GRinf, [1]
in vitro model: acidic pH 5.7, time point: constant (~7 days, model-specific) | 0.0995 | 0.969 | 0.322 | 0.172 | -0.693
in vitro model: acidic pH 5.7, time point: terminal (~4-5 doublings, model-specific) | 0.0881 | 0.998 | 0.392 | 0.396 | -0.38
in vitro model: intracellular J774, time point: constant = terminal | – | 0.943 | – | 0.658 | -0.214

Settings | AUC25, [4] | Einf, [2] | FIC50, [5] | FIC90, [3] | GRinf, [1]
in vitro model: butyrate, time point: constant (~7 days, model-specific) | 0.0889 | 0.933 | 0.485 | 0.365 | -0.0857
in vitro model: butyrate, time point: terminal (~4-5 doublings, model-specific) | 0.0717 | 0.976 | 0.482 | 0.362 | -0.102
in vitro model: cholesterol 0.05 mM, time point: constant (~7 days, model-specific) | 0.119 | 0.787 | 0.249 | – | -0.201
in vitro model: cholesterol 0.05 mM, time point: terminal (~4-5 doublings, model-specific) | 0.0716 | 0.93 | 0.341 | 0.609 | -0.223
in vitro model: cholesterol-high 0.2 mM, time point: constant (~7 days, model-specific) | 0.0555 | 0.969 | 0.211 | -0.159 | -0.659
in vitro model: cholesterol-high 0.2 mM, time point: terminal (~4-5 doublings, model-specific) | 0.0435 | 1 | 0.367 | 0.259 | -0.615
in vitro model: dormancy (butyrate + nitrate, low O2), time point: constant (~7 days, model-specific) | 0.072 | 0.941 | 0.549 | 1 | 0.16
in vitro model: dormancy (butyrate + nitrate, low O2), time point: terminal (~4-5 doublings, model-specific) | 0.0609 | 0.981 | 0.481 | 0.635 | -0.111
in vitro model: standard 7H9 glycerol, time point: constant = terminal | 0.0637 | 0.949 | 0.236 | 0.112 | -0.0779
in vitro model: valerate, time point: constant (~7 days, model-specific) | 0.0652 | 0.899 | 0.621 | – | -0.0573
in vitro model: valerate, time point: terminal (~4-5 doublings, model-specific) | 0.0336 | 0.955 | 0.678 | 0.464 | -0.0667

COc1nc2ccc(Br)cc2cc1[C@@H](c1ccccc1)[C@@](O)(CCN(C)C)c1cccc2ccccc12 [bedaquiline] + CO[C@H]1/C=C/O[C@@]2(C)Oc3c(C)c(O)c4c(O)c(c(/C=N/N5CCN(C)CC5)c(O)c4c3C2=O)NC(=O)/C(C)=C\C=C\[C@H](C)[C@H](O)[C@@H](C)[C@@H](O)[C@@H](C)[C@H](OC(C)=O)[C@@H]1C [rifampicin]
Settings | AUC25, [4] | Einf, [2] | FIC50, [5] | FIC90, [3] | GRinf, [1]
in vitro model: acidic pH 5.7, time point: constant (~7 days, model-specific) | 0.11 | 0.966 | 0.235 | -0.844 | -0.709
in vitro model: acidic pH 5.7, time point: terminal (~4-5 doublings, model-specific) | 0.0796 | 0.995 | 0.0554 | -0.216 | -0.353
in vitro model: intracellular J774, time point: constant = terminal | – | 0.963 | – | 0.648 | -0.255

Settings | AUC25, [4] | Einf, [2] | FIC50, [5] | FIC90, [3] | GRinf, [1]
in vitro model: butyrate, time point: constant (~7 days, model-specific) | 0.112 | 0.958 | 0.393 | 0.174 | -0.181
in vitro model: butyrate, time point: terminal (~4-5 doublings, model-specific) | 0.0949 | 0.988 | 0.398 | 0.429 | -0.18
in vitro model: cholesterol 0.05 mM, time point: constant (~7 days, model-specific) | 0.104 | 0.722 | 0.0154 | – | -0.0966
in vitro model: cholesterol 0.05 mM, time point: terminal (~4-5 doublings, model-specific) | 0.0851 | 0.919 | 0.343 | -0.364 | -0.181
in vitro model: cholesterol-high 0.2 mM, time point: constant (~7 days, model-specific) | 0.0637 | 0.982 | 0.194 | -0.00523 | -0.639
in vitro model: cholesterol-high 0.2 mM, time point: terminal (~4-5 doublings, model-specific) | 0.058 | 1 | 0.318 | 0.223 | -0.64
in vitro model: dormancy (butyrate + nitrate, low O2), time point: constant (~7 days, model-specific) | 0.0984 | 0.921 | 0.234 | 0.896 | 0.149
in vitro model: dormancy (butyrate + nitrate, low O2), time point: terminal (~4-5 doublings, model-specific) | 0.0644 | 0.985 | 0.332 | 0.603 | -0.312
in vitro model: standard 7H9 glycerol, time point: constant = terminal | 0.0718 | 0.93 | 0.22 | 0.326 | -0.0375
in vitro model: valerate, time point: constant (~7 days, model-specific) | 0.0727 | 0.914 | 0.714 | – | -0.108
in vitro model: valerate, time point: terminal (~4-5 doublings, model-specific) | 0.0313 | 0.956 | 0.779 | 0.467 | -0.0734

COc1nc2ccc(Br)cc2cc1[C@@H](c1ccccc1)[C@@](O)(CCN(C)C)c1cccc2ccccc12 [bedaquiline] + COc1c(N2C[C@@H]3CCCN[C@@H]3C2)c(F)cc2c(=O)c(C(=O)O)cn(C3CC3)c12 [moxifloxacin]
Settings | AUC25, [4] | Einf, [2] | FIC50, [5] | FIC90, [3] | GRinf, [1]
in vitro model: acidic pH 5.7, time point: constant (~7 days, model-specific) | 0.111 | 0.834 | 0.282 | – | -0.5
in vitro model: acidic pH 5.7, time point: terminal (~4-5 doublings, model-specific) | 0.0707 | 0.974 | 0.69 | 0.144 | -0.382
in vitro model: intracellular J774, time point: constant = terminal | – | 0.975 | – | 0.878 | -0.309

Settings | AUC25, [4] | Einf, [2] | FIC50, [5] | FIC90, [3] | GRinf, [1]
in vitro model: butyrate, time point: constant (~7 days, model-specific) | 0.092 | 0.966 | 0.816 | 0.849 | -0.175
in vitro model: butyrate, time point: terminal (~4-5 doublings, model-specific) | 0.059 | 0.981 | 0.823 | 0.833 | -0.131
in vitro model: cholesterol 0.05 mM, time point: constant (~7 days, model-specific) | 0.112 | 0.777 | 0.158 | – | -0.237
in vitro model: cholesterol 0.05 mM, time point: terminal (~4-5 doublings, model-specific) | 0.0888 | 0.951 | 0.528 | 0.279 | -0.314
in vitro model: cholesterol-high 0.2 mM, time point: constant (~7 days, model-specific) | 0.0699 | 0.968 | 0.333 | 0.255 | -0.699
in vitro model: cholesterol-high 0.2 mM, time point: terminal (~4-5 doublings, model-specific) | 0.0477 | 1 | 0.532 | 0.271 | -0.644
in vitro model: dormancy (butyrate + nitrate, low O2), time point: constant (~7 days, model-specific) | 0.0664 | 0.921 | 0.814 | 0.437 | 0.176
in vitro model: dormancy (butyrate + nitrate, low O2), time point: terminal (~4-5 doublings, model-specific) | 0.0916 | 0.982 | 0.702 | 1.39 | -0.143
in vitro model: standard 7H9 glycerol, time point: constant = terminal | 0.105 | 0.993 | 0.0351 | 0.704 | -0.102
in vitro model: valerate, time point: constant (~7 days, model-specific) | 0.0901 | 0.911 | 0.469 | – | -0.123
in vitro model: valerate, time point: terminal (~4-5 doublings, model-specific) | 0.0647 | 0.966 | 0.485 | 0.622 | -0.0943

COc1nc2ccc(Br)cc2cc1[C@@H](c1ccccc1)[C@@](O)(CCN(C)C)c1cccc2ccccc12 [bedaquiline] + NC(=O)c1cnccn1 [pyrazinamide]
Settings | AUC25, [4] | Einf, [2] | FIC50, [5] | FIC90, [3] | GRinf, [1]
in vitro model: acidic pH 5.7, time point: constant (~7 days, model-specific) | 0.0806 | 0.84 | -0.282 | -1.27 | -0.398
in vitro model: acidic pH 5.7, time point: terminal (~4-5 doublings, model-specific) | 0.0795 | 0.985 | -0.0485 | -0.613 | -0.351
in vitro model: intracellular J774, time point: constant = terminal | – | 0.99 | – | 0.411 | -0.387

Settings | AUC25, [4] | Einf, [2] | FIC50, [5] | FIC90, [3] | GRinf, [1]
in vitro model: butyrate, time point: constant (~7 days, model-specific) | 0.124 | 0.969 | 0.033 | 0.896 | -0.595
in vitro model: butyrate, time point: terminal (~4-5 doublings, model-specific) | 0.106 | 0.991 | 0.262 | 1.12 | -0.941
in vitro model: cholesterol 0.05 mM, time point: constant (~7 days, model-specific) | 0.101 | 0.746 | – | – | -0.259
in vitro model: cholesterol 0.05 mM, time point: terminal (~4-5 doublings, model-specific) | 0.0985 | 0.949 | 0.282 | – | -0.43
in vitro model: cholesterol-high 0.2 mM, time point: constant (~7 days, model-specific) | 0.0781 | 0.978 | 0.168 | – | -0.543
in vitro model: cholesterol-high 0.2 mM, time point: terminal (~4-5 doublings, model-specific) | 0.0705 | 1 | 0.224 | 0.208 | -0.654
in vitro model: dormancy (butyrate + nitrate, low O2), time point: constant (~7 days, model-specific) | 0.0588 | 0.919 | -1.06 | -1.22 | 0.131
in vitro model: dormancy (butyrate + nitrate, low O2), time point: terminal (~4-5 doublings, model-specific) | 0.0543 | 0.98 | -0.504 | -0.991 | -0.121
in vitro model: standard 7H9 glycerol, time point: constant = terminal | 0.072 | 0.943 | -0.45 | – | -0.0583
in vitro model: valerate, time point: constant (~7 days, model-specific) | 0.0845 | 0.896 | 0.247 | – | -0.0105
in vitro model: valerate, time point: terminal (~4-5 doublings, model-specific) | 0.057 | 0.943 | 0.318 | 0.391 | 0.0136
